Reference: patent publication US20220117938A1, “COMBINATON THERAPY WITH A DON PRODRUG AND AN IMMUNE CHECKPOINT INHIBITOR” (DRACEN PHARMACEUTICALS, INC., priority 2019, published 2022)

Tested on: Ninety four (94) cell lines and PBMC
Assay: Cell viability assay, SRB staining, 94 cell lines and PBMC (Example 7, Experiment 2)
Format: cell-based
Protocol: Ninety four (94) cell lines were seeded at a density varying from 500 to 7000 cells/well depending on their growth characteristics. PBMC were seeded at the density 50,000-100,000 cells/well. Cells were incubated for 48 h prior to compound treatment. Compound 1 and DON were evaluated at a concertation range of 1 nM up to 100 μM. Compound 1 dilutions in DMSO and DON dilutions in PBS were performed in 96-well 0.5 mL plates (Greiner Bio-One, Germany). Compounds were then diluted 1:100 in RPMI medium. […] of cells were treated by mixing with 10 μL of the compound-containing media (resulting in a final DMSO concentration of 0.1%). The cells were allowed to grow at 37° C. for 120 h. Cells were fixed to the surface by addition of 10% TCA (for adherent growing cells) or 50% TCA (for semi-adherent growing cells or cells growing in suspension). After an hour of incubation at 4° C., plates were washed twice with 400 μL of deionized water and dried. Cells were then stained with 100 μL of 0.04% wt/v SRB. The plates were incubated at room temperature for at least 30 min and washed six times with 1% acetic acid to remove unbound stain. The plates were left to dry at room temperature and bound SRB was solubilized with 100 μL of 10 mM Tris base. Optical density was measured at 492, 520 and 560 nm using a Deelux-LED96 plate reader (Deelux Labortechnik GmbH, Germany).
Cell lines were purchased directly from the ATCC, NCI, CLS, and DSMZ cell line collections. A master bank and working aliquots were prepared. Cells used for the study had undergone less than 20 passages. To rule out potential contamination or wrong assignment, all cell lines were tested by STR analysis. Absence of mycoplasma contamination was confirmed for all cell lines used in the studies.
The cell lines were grown in the media recommended by the suppliers in the presence of 100 U/mL penicillin and 100 μg/mL streptomycin supplied with 10% FCS (PAA, Germany). RPMI 1640, DMEM, and MEM Earle's medium were from PAA (Coelbe, Germany), supplements 2 mM L-glutamine, 1 mM Na-pyruvate and 1% NEAA were from PAA (Coelbe, Germany), 2.5% horse serum, hydrocortisone, transferin, beta-estradiol, selenite and 1 U/mL insulin from Sigma-Aldrich (Munich, Germany). RPMI medium was used for culturing the following cell lines: 5637, 22RV1, 7860, A2780, A431, A549, ACHN, ASPC1, BT20, BXPC3, CAKI1, CLS439, COLO205, COLO678, DLD1, DU145, EFO21, EJ28, HCT15, HS578T, IGROV1, JAR, LOVO, MCF7, MDA MB231, MDA MB435, MDA MB436, MDA MB468, MHHES1, MT3, NCI H292, NCI H358M, NCI H460, NCIH82, OVCAR3, OVCAR4, PANC 1005 (addition of insulin), PBMC, PC3, RDES, SF268, SF295, SKBR3, SK MEL28, SKMEL5, SKOV3, SW620, U2OS, UMUC3, and U031.
DMEM medium was used to culture A204, A375, A673, C33A, CASKI, HCT116, HEPG2, HS729, HT29, J82, MG63, MIAPACA2 (addition of horse serum), PANC1, PLCPRF5, RD, SAOS2, SKLMS1, SKNAS, SNB75, T24, and TE671.
MEM Earle's medium was used for CACO2, CALU6, HEK293, HELA, HT1080, IMR90, JEG3, JIMT1, SKHEP1, SKNSH, and U87MG. Cell seeding conditions were optimized for each cell line. The cell seeding density varied from 500 to 7000 cells/well depending on their growth characteristics. Peripheral blood mononuclear cells (PBMC) were freshly isolated from whole blood of an anonymous donor through density gradient centrifugation using Ficoll solution (d=1.077). In short, blood was diluted 1:1 with PBS and carefully placed on the Ficoll. After centrifugation 1000×g for 15 min (braking rate 0), the ring containing mainly leucocytes was collected in PBS followed by three times washing with PBS to reduce the platelets. PBMC were seeded at the density 50,000-100,000 cells/well. Cells were grown in 5% CO2 atmosphere in a NB-203XXL incubator (N-BIOTEK Inc., Korea).
Ninety-four cell lines were tested in parallel. Cell growth and treatment were performed in 96 well microtitre plates CELLSTAR® (Greiner Bio-One, Germany). […]

[1] = Homo sapiens, MDA-MB-468, MDAMB468, breast
[2] = Homo sapiens, MG-63, MG63, bone
[3] = Homo sapiens, MHH-ES-1, MHHES1, bone
[4] = Homo sapiens, MIA PaCa-2, MIAPACA2, pancreas
[5] = Homo sapiens, MINO, hematological
[6] = Homo sapiens, MV4-11, MV4-11, hematological
[7] = Homo sapiens, NCI-H292, NCIH292, lung
[8] = Homo sapiens, NCI-H460, NCIH460, lung
[9] = Homo sapiens, OVCAR-3, OVCAR3, ovary
[10] = Homo sapiens, OVCAR-4, OVCAR4, ovary
[11] = Homo sapiens, PANC-1, PANC1, pancreas
[12] = Homo sapiens, PLC-PRF-5, PLCPRF5, liver
[13] = Homo sapiens, Panc1005, PANC1005, pancreas
[14] = Homo sapiens, SAOS-2, SAOS2, bone
[15] = Homo sapiens, SF-268, SF268, brain
[16] = Homo sapiens, SF-295, SF295, brain
[17] = Homo sapiens, SK-BR-3, SKBR3, breast
[18] = Homo sapiens, SK-HEP1, SKHEP1, liver
[19] = Homo sapiens, SK-LMS-1, SKLMS1, uterus
[20] = Homo sapiens, SK-MEL-5, SKMEL5, skin
[21] = Homo sapiens, SK-MEL-28, SKMEL28, skin
[22] = Homo sapiens, SK-N-SH, SKNSH, brain
[23] = Homo sapiens, SK-OV-3, SKOV3, ovary
[24] = Homo sapiens, SU-DHL-6, SU-DHL-6, hematological
[25] = Homo sapiens, SW-620, SW620, colon
[26] = Homo sapiens, TE-671, TE671, muscle
[27] = Homo sapiens, THP-1, THP-1, hematological
[28] = Homo sapiens, U-87 MG, U87MG, brain
[29] = Homo sapiens, UMUC3, UMUC3, bladder
[30] = Homo sapiens, UO-31, UO31, kidney
[31] = Homo sapiens, WSU-NHL, hematological

In the case of `[N-]=[N+]=CC(=O)CC[C@H](N)C(=O)O` [DON, 6-Diazo-5-oxo-L-norleucine, reference compound], the IC50 (Homo sapiens, MDA-MB-436, MDAMB436, breast) is reported as 19.8 µM, the GI50 [1] is reported as 0.427 µM and the IC50 [1] is reported as 0.599 µM. The GI50 [2] was 4.61 µM, the IC50 [2] was 5.3 µM and the GI50 [3] was 1.85 µM. It also gave an IC50 [3] of 2 µM, a GI50 [4] of 3.32 µM and an IC50 [4] of 3.58 µM. It also gave a GI50 [5] of 0.497 µM, an IC50 [5] of 0.633 µM and a GI50 [6] of 1.22 µM. For the same molecule, the IC50 [6] was 1.4 µM, the GI50 [7] was 5.72 µM and the IC50 [7] was 53.1 µM. For the same molecule, the GI50 [8] was 4.11 µM, the IC50 [8] was 4.31 µM and the GI50 [9] was 0.889 µM. The IC50 [9] was 2.3 µM, the GI50 [10] was 0.651 µM and the IC50 [10] was 0.752 µM. It also gave a GI50 [11] of 12.3 µM, an IC50 [11] of 13.2 µM and a GI50 [12] of 6.53 µM. The IC50 [12] was 8.04 µM, the GI50 [13] was 4.17 µM and the IC50 [13] was 8.6 µM. It also gave a GI50 (Homo sapiens, Ramos, hematological) of 0.672 µM, a GI50 [14] of 6.36 µM and an IC50 [14] of 33.2 µM. For the same molecule, the GI50 [15] was 6.32 µM, the IC50 [15] was 7.43 µM and the GI50 [16] was 4.71 µM. It also gave an IC50 [16] of 5.23 µM, a GI50 [17] of 2.14 µM and an IC50 [17] of 3.21 µM. For the same molecule, the GI50 [18] was 1.79 µM, the IC50 [18] was 2.62 µM and the GI50 [19] was 1.66 µM. The IC50 [19] was 2.3 µM, the GI50 [20] was 2.19 µM and the IC50 [20] was 3.02 µM. It also gave a GI50 [21] of 1.69 µM, an IC50 [21] of 2.19 µM and a GI50 (Homo sapiens, SK-N-AS, SKNAS, brain) of 12.6 µM. It also gave a GI50 [22] of 5.04 µM, an IC50 [22] of 7.11 µM and a GI50 [23] of 0.769 µM. For the same molecule, the IC50 [23] was 1.21 µM, the GI50 (Homo sapiens, SNB-75, SNB75, brain) was 15.5 µM and the GI50 (Homo sapiens, SU-DHL10, SU-DHL-10, hematological) was 8.42 µM. It also gave a GI50 [24] of 0.623 µM, an IC50 [24] of 0.761 µM and a GI50 [25] of 5.38 µM. For the same molecule, the IC50 [25] was 6.25 µM, the GI50 [26] was 4.63 µM and the IC50 [26] was 5.1 µM. It also gave a GI50 [27] of 1.02 µM, an IC50 [27] of 1.09 µM and a GI50 (Homo sapiens, U2OS, bone) of 5.91 µM. The IC50 (Homo sapiens, U2OS, bone) was 8.4 µM, the GI50 [28] was 10.5 µM and the IC50 [28] was 11.3 µM. It also gave a GI50 [29] of 2.23 µM, an IC50 [29] of 2.76 µM and a GI50 [30] of 0.981 µM. It also gave an IC50 [30] of 18.6 µM, a GI50 [31] of 0.796 µM and an IC50 [31] of 0.639 µM. The IC50 (J82, bladder) was 28.9 µM, the IC50 (JAR, placenta) was 3.04 µM and the IC50 (MT3, breast) was 0.791 µM. For the same molecule, the GI50 (NCI-H358M, NCIH358M, lung) was 1.61 µM, the IC50 (NCI-H358M, NCIH358M, lung) was 4.98 µM and the GI50 (PBMC, 5637, bladder) was 0.796 µM. The GI50 (PBMC, CLS439, bladder) was 6.87 µM, the GI50 (PBMC, HS729, muscle) was 7.42 µM and the GI50 (PBMC, J82, bladder) was 23.2 µM. For the same molecule, the GI50 (PBMC, JAR, placenta) was 2.81 µM, the GI50 (PBMC, MT3, breast) was 0.638 µM and the GI50 (PBMC, PC3, prostate) was 8.37 µM. It also gave a GI50 (PBMC, RD, muscle) of 6.79 µM, a GI50 (PBMC, T24, bladder) of 3.86 µM and an IC50 (PC3, prostate) of 11.7 µM. The IC50 (RD, muscle) was 9.13 µM, the GI50 (RD-ES, RDES, bone) was 1.96 µM and the IC50 (RD-ES, RDES, bone) was 3.18 µM. For the same molecule, the IC50 (T24, bladder) was 4 µM.
